# According to a melting point compilation (Tetko et al.; mined from patent text by program, amines drawn as free bases though some values may be those of a salt):
row,melting point [°C],SMILES
1,112 to 114,Cc1c(SCCCCl)ccnc1CSc1nc2ccccc2[nH]1
2,190,CCOC(=O)c1cn(C)c2nc3cc(N4CCNC(Cc5ccccc5)C4)c(F)cc3cc2c1=O (racemic)
3,59 to 63,CCCCC#Cc1cc2c(cc1Br)C(C)(C)CCC2(C)C
4,151 to 152,CN1C(C(=O)Nc2ccccn2)=C(OC2OC(=O)c3ccccc32)c2ccccc2S1(=O)=O (stereo unspecified)
5,202 to 203,CSc1nnc(-c2ccc3ncn(-c4ccc(OC(F)F)cc4)c3c2)o1
6,250 to 252,NC(=O)c1sc2nccc(N3CCN(c4ccccc4)CC3)c2c1N
7,168 to 169,O=C1NC(=O)C(S(=O)(=O)c2ccc3ccccc3n2)S1 (stereo unspecified)
8,118 to 122,CC(C)c1cccc(C(C)C)c1NC(=O)[C@H](C)N
9,136 to 137,O=C(NCc1cccnc1)c1ccc2n1Cc1ccccc1N(C(=O)CSc1ccc(Br)cc1)C2
10,127 to 130,CCCCc1nc2c(N)nc3ccccc3c2n1CCCCSC
11,153 to 154,COc1ccc(-c2c(Cl)c(CNS(=O)(=O)c3ccccc3)nc3sc4c(c23)CCN(Cc2ccccc2)C4)cc1OC
12,94 to 98,CC(C)Nc1nc(-n2cccn2)nc(Cl)c1-c1c(F)cccc1Cl
13,78 to 80,CCSC(C)C(=O)N(CC)c1c[nH]nc1Cl (stereo unspecified)
14,186 to 188,CSC1C(=O)Nc2c(C(=O)c3ccc(Cl)cc3)cccc21 (stereo unspecified)
15,178,OC1CC(c2ccc(-c3ccc(OCc4ccc(Br)cc4)cc3)cc2)Cc2ccccc21 (stereo unspecified)
16,70 to 72,CCOC(=O)CNCc1cc(N(C)C)ccc1[N+](=O)[O-]
17,235,Clc1cccc(Nc2ncnc3[nH]nc(NCc4ccc(-c5cncs5)cc4)c23)c1
18,380,CN1c2ccccc2Sc2cc(C=Cc3ccc(-c4ccc(C=Cc5ccc6c(c5)Sc5ccccc5N6C)cc4)cc3)ccc21
19,70.8 to 71.2,Nc1cc(C(F)(F)F)cc(C(F)(F)F)n1
20,129 to 130,Cc1cc(C2CCCCC2)ccc1C(=O)O
21,150 to 155,CCOC(=O)C(C#N)=CNc1ccc(OC)c(OC)c1
22,203,CC(=O)Nc1c(C)c(C)c2c(c1[N+](=O)[O-])CC(C)(C)O2
23,212 to 214,CCOc1ccc2c(c1)C(c1ccccc1Cl)(N(C)C)C(=O)N2S(=O)(=O)c1ccc(NC(=O)N(CC)CC)cc1OC (stereo unspecified)

row,melting point [°C],SMILES
1,183 to 185,N#Cc1cc2cc(C(O)(C(F)(F)F)C(F)(F)F)ccc2[nH]1
2,250 to 252,NC(=O)c1c(Cl)c(-c2ccccc2)n2c1CN(S(=O)(=O)c1ccccc1)CC2
3,130 to 132,CCOC(=O)c1cnc2ncnn2c1Cl
4,83 to 87,COC(=O)CCc1cc2cc(Cl)ccc2n1S(=O)(=O)c1ccc(C(C)=O)cc1
5,131 to 133,CCCCN(Cc1ccc(-c2ccccc2-c2nnnn2C(c2ccccc2)(c2ccccc2)c2ccccc2)cc1)c1nc(C)cc(C)n1
6,225 to 227,CC(=O)N1CC(C)(C)c2cc3nc(-c4ccccc4)[nH]c3cc21
7,122 to 123,Cc1nnsc1C(=O)Nc1ccc(-n2nc(C(F)(F)F)cc2OC(F)F)cc1
8,107 to 110,CC(C)C=C(C=NO)c1ccccc1
9,141 to 142,O=C1OC(=O)c2c(Sc3ccccc3)c(Sc3ccccc3)c(Sc3ccccc3)c(Sc3ccccc3)c21
10,319 to 322,Cc1cc2nc3[nH]c4ccc(Br)cc4c3nc2cc1C
11,146 to 150,Cn1ncc2c1-c1cc(Cl)ccc1N(C(=O)C1CC1)C2
12,111 to 113,CCn1cc(CN(C(=O)C2CCCc3cc(OC)ccc32)c2ccc(C(C)C)cc2)cn1 (stereo unspecified)
13,136 to 138,CN(Cc1cc(C(F)(F)F)cc(C(F)(F)F)c1)C(=O)c1c(-c2ccc(F)cc2)c2cnccc2c(=O)n1C
14,174 to 175,CN1CCC(Oc2ccc(N)cc2)(c2ccccc2)CC1
15,131 to 144,CCCS(=O)c1csc(C(=O)OC)c1S(N)(=O)=O (stereo unspecified)
16,211 to 213,O=C(Nc1cccc(-c2ccnc3c(C(=O)c4cccs4)cnn23)c1)c1ccccc1
17,141 to 142,Cc1cc2c(-c3ccccc3)nc(N3CCN(CC(=O)c4ccc(F)cc4)CC3)nc2s1
18,147 to 148,CCC(=O)Nc1ccc(-n2cc(CCCOc3c(CC(=O)O)cccc3OC)c(C(C)C)n2)nc1
19,98,Cc1cccc(OCCOc2cccc(C)c2)c1
20,94.5 to 98,CC(NS(=O)(=O)c1ccc(Cl)cc1)P(=O)(OCCCl)OCCCl (stereo unspecified)
21,145 to 147,COc1ccc(N2CCOCC2)c2sc(C#N)nc12
22,232 to 234,CC(C)C(C)CCC(C)C1CCC2C3CCC4CC(OC(=O)c5ccccc5)CCC4(C)C3CCC12C (stereo unspecified)
23,115 to 116,CNC(=S)Nc1ccccc1N1CCOCC1

row,melting point [°C],SMILES
1,209 to 210,NC(=NCC(F)(F)F)Nc1ccnc(CCCCc2nc(O)n[nH]2)n1
2,68 to 70,O=C(NCCNCCNC(=O)C(F)(F)F)C(F)(F)F
3,136 to 138,COc1ccc(C(=O)NCCSSCCNC(=O)c2ccc(OC)cc2)cc1
4,265 to 267,O=C1NCCc2c1c1cccc3c1n2CC3
5,138 to 141,O=S(=O)(c1c(-c2ccc(Cl)cc2)[nH]c(Br)c1Br)C(F)(F)C(F)F
6,177 to 180,CCCc1nc2c(N)nc3ccc(Br)cc3c2s1
7,118 to 121,CC[C@@H]1NC(=O)C(F)(F)[C@@H]1O
8,> 280,Cc1ccc(Nc2c3ccccc3nc3ccccc23)cc1[N+](=O)[O-]
9,130 to 133,C=Cn1nc(-c2ccc(OC)cc2)cc(C(=O)NC)c1=O
10,226 to 228,COc1c(N2CCC(n3nncc3C)C2)c(F)cc2c(=O)c(C(=O)O)cn(C3CC3)c12 (stereo unspecified)
11,157 to 158,Cc1c(F)c(F)c(C(N)=O)c(F)c1F
12,91 to 94,C=CCN(C(C)=O)c1cccc(C(=O)C=CN(C)C)c1
13,> 290,COc1ccc2[nH]cc(C3=C(c4c[nH]c5ccc(OC)cc45)C(=O)N(C)C3=O)c2c1
14,98.8,"CCCCCc1ccc(-c2ccc(C3CCC(=O)O3)cc2)cc1 (single isomer, unassigned)"
15,146 to 148,CC(=O)N1CCC(NC(=O)Nc2ccc(F)cc2)CC1
16,175 to 180,O=C(c1cc(NS(=O)(=O)c2ccccc2)ccn1)N(O)Cc1ccccc1
17,318,O=C1c2ccccc2C(=O)c2c1oc1ccc3cc(O)ccc3c21
18,89 to 91,BrCCCCOc1ccc(OCCCCBr)cc1
19,92 to 94,CC(C)(C)n1nn[nH]c1=S
20,192 to 193,Cc1ccn(-c2ccc(C(=O)N3Cc4cccn4Cc4ccccc43)c(F)c2)n1
21,83 to 85,CCCCc1nc(O)cc(CC(=O)OC)n1

row,SMILES,melting point [°C]
1,CCOC1CN2CCC1CC2 (stereo unspecified),96 to 98
2,COc1ccc(-c2nc3c(C(=O)NC4CN5CCC4CC5)cccc3o2)cc1 (stereo unspecified),108 to 109
3,CN1Cc2c(C#Cc3ccccc3)ncn2-c2cccc(Br)c2C1=O,207 to 209
4,Cc1ccc(Cn2nc(C(=O)NC3CCCCC3C)cc2-c2ccc(Cl)c(Cl)c2)cc1Cl (stereo unspecified),165
